Data: article PMC10222987 (Viruses, 2023)
Like-named read-outs stand apart in the source and are kept apart here.

Experiments:
[1] = tested on: H1N1pdm09 (A/Osaka/129/2009) WT; assay: microbe, parasite or virus in culture; format: cell-based; conditions: Influenza A virus, read-out: EC50 Mean
H1N1pdm09.WT = conditions: mouse, in vivo
[2] = BALB/c, mouse, in vivo; for C24 (plasma concentration at 24 h): sc
[3] = hamster, in vivo, sc
H1N1 (rgA/WSN/33) WT [4] = conditions: cited from earlier work
[5] = tested on: H3N2 (rgA/Victoria/3/75) WT; conditions: cited from earlier work
H1N1 (rgA/WSN/33) WT [6] = conditions: cited from earlier work; remark: listed apart in the source
[7] = tested on: H3N2 (rgA/Victoria/3/75) WT; conditions: cited from earlier work; remark: listed apart in the source

With `O=C1c2c(O)c(=O)ccn2N([C@@H]2c3ccccc3SCc3c2ccc(F)c3F)[C@@H]2COCCN12` [baloxavir acid] as the compound, how does the EC50 [1] read?
Its EC50 is 610 pM.

And the Lung virus titer (H1N1pdm09.WT)?
The Lung virus titer was “almost to the LLOQ”.

And the “C24 of a simulated dose” value [2]?
Its value is 78.3 ng/mL.

And the “C24 (plasma concentration at 24 h)” value ([2]; 20 mg/kg)?
Its value is 47.4 ± 4.9 ng/mL.

What about the “C24 (plasma concentration at 24 h)” value ([2]; 30 mg/kg) of the same compound?
The value was 70.8 ± 13.9 ng/mL.

And the “C24 (plasma concentration at 24 h)” value ([3]; 10 mg/kg)?
Its value is 17.3 ± 3.3 ng/mL.

And the “C24 (plasma concentration at 24 h)” value ([3]; 30 mg/kg)?
Its value is 45.7 ± 19.7 ng/mL.

What about the EC50 (H1N1 (rgA/WSN/33) WT [4]) of the same compound?
Its EC50 is 420 pM.

And the EC50 [5]?
Its EC50 is 1130 pM.

For `CCC(CC)O[C@@H]1C=C(C(=O)O)C[C@H](N)[C@H]1NC(C)=O` [oseltamivir acid], which IC50 (H1N1 (rgA/WSN/33) WT [6]) is on record?
The IC50 was 800 pM.

What about the IC50 [7] of the same compound?
The IC50 was 130 pM.

Which “Lung virus titers vs vehicle” value (H1N1pdm09.WT) does the source give for `CCOC(=O)C1=C[C@@H](OC(CC)CC)[C@H](NC(C)=O)[C@@H](N)C1` [oseltamivir phosphate] here?
The value was “statistically lower compared with vehicle”.
